This is an account of results in BindingDB's records for doi:10.1016/j.bmcl.2003.12.032 (Boehringer Ingelheim (Canada), 2004).

Test [1] is described as follows: Concentration required to inhibit DNA dependent RNA polymerase was determined from calf thymus.
The nature of test [2]: Concentration required to inhibit RNA dependent RNA polymerase was determined from polio virus.
Experiment in test [3]: as above
This is another data set of the same source.

Where only a bound is given, the exact number is not on record here.

Usually IC50 stands for the concentration at which inhibition is half-maximal.

As to `O=C(N[C@@H](Cc1c[nH]c2ccc(O)cc12)C(=O)O)c1ccc2c(c1)nc(-c1ccoc1)n2C1CCCCC1` [(S)-2-[(1-Cyclohexyl-2-furan-3-yl-1H-benzoimidazole-5-carbonyl)-amino]-3-(5-hydroxy-1H-indol-3-yl)-propionic acid], the IC50 is greater than 200 µM in test [1] and 79 µM in test [2].

With `CS(=O)(=O)Nc1ccc2[nH]cc(C[C@H](NC(=O)c3ccc4c(c3)nc(-c3ccoc3)n4C3CCCCC3)C(=O)O)c2c1` [(S)-2-[(1-Cyclohexyl-2-furan-3-yl-1H-benzoimidazole-5-carbonyl)-amino]-3-(5-methanesulfonylamino-1H-indol-3-yl)-propionic acid], the IC50 in test [3] was greater than 500 µM.

In the case of `O=C(O)c1ccc2[nH]cc(C[C@H](NC(=O)c3ccc4c(c3)nc(-c3ccoc3)n4C3CCCCC3)C(=O)O)c2c1` [3-{(S)-2-Carboxy-2-[(1-cyclohexyl-2-furan-3-yl-1H-benzoimidazole-5-carbonyl)-amino]-ethyl}-1H-indole-5-carboxylic acid], the IC50 in test [1] is greater than 250 µM; in test [3], greater than 200 µM.

As to `O=C(N[C@@H](Cc1c[nH]c2ccc(-c3nnn[nH]3)cc12)C(=O)O)c1ccc2c(c1)nc(-c1ccoc1)n2C1CCCCC1` [(S)-2-[(1-Cyclohexyl-2-furan-3-yl-1H-benzoimidazole-5-carbonyl)-amino]-3-[5-(5H-tetrazol-5-yl)-1H-indol-3-yl]-propionic acid], the values for the IC50 in test [1] and in test [2] were greater than 250 µM and greater than 200 µM, respectively.

`NC(=O)c1ccc2[nH]cc(C[C@H](NC(=O)c3ccc4c(c3)nc(-c3ccoc3)n4C3CCCCC3)C(=O)O)c2c1` [(S)-3-(5-Carbamoyl-1H-indol-3-yl)-2-[(1-cyclohexyl-2-furan-3-yl-1H-benzoimidazole-5-carbonyl)-amino]-propionic acid]: the IC50 was greater than 250 µM in test [1] and greater than 200 µM in test [3].

With `O=C(O)C(=O)Nc1ccc2[nH]cc(C[C@H](NC(=O)c3ccc4c(c3)nc(-c3ccoc3)n4C3CCCCC3)C(=O)O)c2c1` [(S)-2-[(1-Cyclohexyl-2-furan-3-yl-1H-benzoimidazole-5-carbonyl)-amino]-3-[5-(oxalyl-amino)-1H-indol-3-yl]-propionic acid], the IC50 in test [1] and in test [2] was greater than 250 µM each time.

`O=C(N[C@@H](Cc1c[nH]c2ccc(NS(=O)(=O)C(F)(F)F)cc12)C(=O)O)c1ccc2c(c1)nc(-c1ccoc1)n2C1CCCCC1` [(S)-2-[(1-Cyclohexyl-2-furan-3-yl-1H-benzoimidazole-5-carbonyl)-amino]-3-(5-trifluoromethanesulfonylamino-1H-indol-3-yl)-propionic acid]: the IC50 in test [1] and in test [3] was greater than 250 µM throughout.

Turning to `O=C(O)COc1ccc2[nH]cc(C[C@H](NC(=O)c3ccc4c(c3)nc(-c3ccoc3)n4C3CCCCC3)C(=O)O)c2c1` [(S)-3-(5-(carboxymethoxy)-1H-indol-3-yl)-2-(1-cyclohexyl-2-(furan-3-yl)-1H-benzo[d]imidazole-5-carboxamido)propanoic acid], the IC50 is greater than 200 µM in test [1] and 100 µM in test [2].

For `CC(=O)Nc1ccc2[nH]cc(C[C@H](NC(=O)c3ccc4c(c3)nc(-c3ccoc3)n4C3CCCCC3)C(=O)O)c2c1` [(S)-3-(5-Acetylamino-1H-indol-3-yl)-2-[(1-cyclohexyl-2-furan-3-yl-1H-benzoimidazole-5-carbonyl)-amino]-propionic acid], the IC50 in test [1] is greater than 250 µM; in test [3], greater than 125 µM.

On to `Nc1ccc2[nH]cc(C[C@H](NC(=O)c3ccc4c(c3)nc(-c3ccoc3)n4C3CCCCC3)C(=O)O)c2c1` [(S)-3-(5-Amino-1H-indol-3-yl)-2-[(1-cyclohexyl-2-furan-3-yl-1H-benzoimidazole-5-carbonyl)-amino]-propionic acid], for which the IC50 is greater than 250 µM in test [1] and greater than 500 µM in test [2].

For the molecule `CC(C)(Oc1ccc2[nH]cc(C[C@H](NC(=O)c3ccc4c(c3)nc(-c3ccoc3)n4C3CCCCC3)C(=O)O)c2c1)C(=O)O` [(S)-3-[5-(1-Carboxy-1-methyl-ethoxy)-1H-indol-3-yl]-2-[(1-cyclohexyl-2-furan-3-yl-1H-benzoimidazole-5-carbonyl)-amino]-propionic acid], the IC50 in test [3] is greater than 200 µM.
